Assay results from patent US20240092739A1, “COMPOUNDS AND METHODS OF USE” (Ferro Therapeutics, Inc, priority 2020, published 2024).
Like-named read-outs stand apart in the source and are kept apart here.

Tests used:
[1] = system: A431 cells; experiment: Cell proliferation (Alamar Blue) assay, A431 cells; format: cell-based; settings: Homo sapiens
Method: (§1) Cell viability assay was performed to assess the potency of the compounds in human cancer cell lines 786-0 (renal cell carcinoma) and SJSA-1 (osteosarcoma). Additional cell lines, such as pancreatic cancer cell lines (Panc 02.13, BxPC-3, Panc 12, Panc 02.03, Panc 6.03, PSN-1, HPAC, and Capan-1), prostate cancer cell lines (PC-3, DU145, […], NCI-H660, 1PH1 LNCaP, BM-1604, and MDA PCa 2b), etc., can be tested in a similar method.
(§2) Cells (SJSA-1, 786-0 and A431) were seeded (5000 cells/100 μL/well) in 96-well tissue culture plate and incubated at 37° C./500 CO2 for 16-24 hours. The cells were then treated with compounds (25 μL of 5×). The compound concentrations were 10-0.0005 μM prepared in 3-fold serial dilutions with final DMSO concentration of 1%. The plates were then incubated for 24 h at 37° C./[…] in a moist environment. Then Alamar Blue™ reagent (final concentration 1×-12.5 μL) was added to each well and incubated for 1.5 hours at 37° C./500 CO2. The plates were read on fluorescence reader at 540 nm excitation and 590 nm emission wavelengths. The IC50 values were subsequently determined using a sigmoidal dose-response curve (variable slope) in GraphPad Prism® 5 software. Tables A-3 and B-11 show cell proliferation data for exemplary compounds as described herein.

[2] = system: 786-O (renal cell carcinoma) cells; experiment: Cell proliferation (Alamar Blue) assay, 786-O cells; format: cell-based; settings: Homo sapiens
Method: as §1, §2

[3] = system: 786-O cells + Ferrastatin-1; experiment: GPX4 inhibition assay: cell proliferation (Alamar Blue) in 786-O cells with ferrostatin rescue; format: cell-based, human
Method: as §2
Studies have shown that lipophilic antioxidants, such as ferrostatin, can rescue cells from GPX4 inhibition-induced ferroptosis. For instance, mesenchymal state GPX4-knockout cells can survive in the presence of ferrostatin, however, when the supply of ferrostatin is terminated, these cells undergo ferroptosis (see, e.g., Viswanathan et al., Nature 547:453-7, 2017). […] Accordingly, the ability of a molecule to induce ferroptotic cancer cell death, and that such ability is admonished by the addition of ferrostatin, is clear indication that the molecule is an GPX4 inhibitor. Cell proliferation data for exemplary compounds with and without ferrostatin can be seen in Table A-3.

[4] = A-431, A431 cells, 24 h compound incubation, Alamar Blue, read-out: Cell proliferation IC50 (μM) A431
[5] = 786-0, 786-O cells, 24 h compound incubation, Alamar Blue, read-out: Cell proliferation IC50 (μM) 786-O
[6] = 786-O cells with Ferrastatin-1 (rescue), read-out: Cell proliferation IC50 (μM) 786-O + Ferrastatin-1
[7] = A-431, A431 cells, 24 h compound treatment, Alamar Blue, read-out: IC50 (μM) A431
[8] = 786-0, 786-O cells, 24 h compound treatment, Alamar Blue, read-out: IC50 (μM) 786-O
[9] = 786-O cells in presence of Ferrastatin-1 (rescue), read-out: IC50 (μM) 786-O + Ferrastatin-1

| SMILES | IC50 [1, 7] | IC50 [2, 8] | IC50 [3, 9] | IC50 [1, 4] | IC50 [2, 5] | IC50 [3, 6] | IC50 ([1]; A-431, 24 h, read-out: Cell proliferation IC50 (μM) A431) | IC50 ([2]; 786-0, 24 h, read-out: Cell proliferation IC50 (μM) 786-O) |
| --- | --- | --- | --- | --- | --- | --- | --- | --- |
| CCCC[C@H]1Cc2cc(OC)ccc2[C@H](c2ccc(NC34CC5CC(CC(O)(C5)C3)C4)cc2)N1C(=O)C#C[Si](C)(C)C [Compound A-47] | – | – | – | 1.63 µM | 0.049 µM | 2.33 µM | – | – |
| C#CC(=O)N1[C@@H](CCCC)Cc2cc(OC)ccc2[C@@H]1c1ccc(NC23CC4CC(CC(O)(C4)C2)C3)cc1 [Compound B-13] | 1.49 µM | 0.055 µM | 2.01 µM | – | – | – | – | – |
| CCCC[C@H]1Cc2cc(OC)ccc2[C@H](c2ccc(NC34CC5CC(C3)CC(OC(=O)[C@@H](N)C(C)C)(C5)C4)cc2)N1C(=O)C#C[Si](C)(C)C [Compound A-45] | – | – | – | 1.7 µM | 0.0177 µM | 2.04 µM | – | – |
| CCCC[C@H]1Cc2cc(OCCO)ccc2[C@H](c2ccc(NC34CC5CC(CC(C5)C3)C4)cc2)N1C(=O)C#C[Si](C)(C)C [Compound A-44] | – | – | – | 2.24 µM | 0.0053 µM | 2.82 µM | – | – |
| C#CC(=O)N1[C@@H](CCCC)Cc2cc(CCC(=O)O)ccc2[C@@H]1c1ccc(NC23CC4CC(CC(C4)C2)C3)cc1 [Compound B-55] | ≥ 10 µM | 0.046 µM | ≥ 10 µM | – | – | – | – | – |
| CCCC[C@H]1Cc2cc(OC)ccc2[C@H](c2ccc(NC3CC(F)(F)C3)cc2)N1C(=O)C#C[Si](C)(C)C [Compound A-11, 1-((1S,3S)-3-butyl-1-(4-((3,3-difluorocyclobutyl)amino)phenyl)-6-methoxy-3,4-dihydroisoquinolin-2(1H)-yl)-3-(trimethylsilyl)prop-2-yn-1-one] | – | – | – | > 1 µM | 0.109 µM | > 1 µM | – | – |
| CCC[C@H]1Cc2cc(OC)ccc2[C@@H](c2ccc(NC34CC5CC(CC(C5)C3)C4)cc2)N1C(=O)C#C[Si](C)(C)C [Compound A-4] | – | – | – | > 1 µM | 0.067 µM | > 1 µM | – | – |
| COc1ccc2c(c1)C[C@H](C1CCC1)N(C(=O)C#C[Si](C)(C)C)[C@@H]2c1ccc(NC23CC4CC(CC(C4)C2)C3)cc1 (stereo in doubt) [Compound A-8, 1-((1R,3R)-1-(4-(((3S,5S,7S)-adamantan-1-yl)amino)phenyl)-3-cyclobutyl-6-methoxy-3,4-dihydroisoquinolin-2(1H)-yl)-3-(trimethylsilyl)prop-2-yn-1-one] | – | – | – | 4.79 µM | 0.064 µM | 5.05 µM | – | – |
| CCCC[C@H]1Cc2cc(OC)ccc2[C@@H](C23CC(F)(C2)C3)N1C(=O)C#C[Si](C)(C)C [Compound A-10, 1-((1R,3S)-3-butyl-1-(3-fluorobicyclo[1.1.1]pentan-1-yl)-6-methoxy-3,4-dihydroisoquinolin-2(1H)-yl)-3-(trimethylsilyl)prop-2-yn-1-one] | – | – | – | > 1 µM | 0.075 µM | > 1 µM | – | – |
| CCCC[C@H]1Cc2cc(OC(F)(F)F)ccc2[C@H](c2ccc(NC34CC5CC(CC(C5)C3)C4)cc2)N1C(=O)C#C[Si](C)(C)C [Compound A-26, 1-((1S,3S)-1-(4-(((3R,5R,7R)-adamantan-1-yl)amino)phenyl)-3-butyl-6-(trifluoromethoxy)-3,4-dihydroisoquinolin-2(1H)-yl)-3-(trimethylsilyl)prop-2-yn-1-one] | – | – | – | 3.05 µM | 0.043 µM | 4.19 µM | – | – |
| C#CC(=O)N1[C@@H](CCCC)Cc2cc(CCCO)ccc2[C@@H]1c1ccc(NC23CC4CC(CC(C4)C2)C3)cc1 [Compound B-56] | 0.117 µM | 0.012 µM | 1.27 µM | – | – | – | – | – |
| CCCC[C@H]1Cc2cc(OC)ccc2[C@H](c2ccc(C#N)cc2)N1C(=O)C#C[Si](C)(C)C [Compound A-1] | – | – | – | > 10 µM | 0.043 µM | 7 µM | – | – |
| CCCC[C@H]1Cc2c([nH]c3ccccc23)[C@H](c2ccc(NC3CCC3)cc2)N1C(=O)C#C[Si](C)(C)C [Compound A-2] | – | – | – | – | – | 8.63 µM | > 10 µM | 0.009 µM |
| COc1ccc2c(c1)C[C@H](CC(C)C)N(C(=O)C#C[Si](C)(C)C)[C@H]2c1ccc(NC23CC4CC(CC(C4)C2)C3)cc1 [Compound A-43] | – | – | – | 1.83 µM | 0.0725 µM | 2.13 µM | – | – |
| CCCC[C@H]1Cc2cc(OC)ccc2[C@H](c2ccc(NC34CC5CC(CC(C5)C3)C4)cc2)N1C(=O)C#C[Si](C)(C)C [Compound A-6, 1-((1S,3S)-1-(4-(((1s,3R)-adamantan-1-yl)amino)phenyl)-3-butyl-6-methoxy-3,4-dihydroisoquinolin-2(1H)-yl)-3-(trimethylsilyl)prop-2-yn-1-one] | – | – | – | > 1 µM | 0.021 µM | > 1 µM | – | – |
| CCCC[C@H]1Cc2cc(OC)ccc2[C@@H](c2ccc(NC34CC5CC(CC(C5)C3)C4)c(C#N)c2)N1C(=O)C#C[Si](C)(C)C (stereo in doubt) [Compound A-16, 2-(((3S,5S,7S)-adamantan-1-yl)amino)-5-((1R,3S)-3-butyl-6-methoxy-2-(3-(trimethylsilyl)propioloyl)-1,2,3,4-tetrahydroisoquinolin-1-yl)benzonitrile] | – | – | – | ≥ 10 µM | 0.016 µM | > 10 µM | – | – |

Further lines, with some results ahead:

| IC50 [1, 7] | IC50 [2, 8] | IC50 [3, 9] | SMILES | IC50 [1, 4] | IC50 [2, 5] | IC50 [3, 6] | IC50 ([1]; A-431, 24 h, read-out: Cell proliferation IC50 (μM) A431) | IC50 ([2]; 786-0, 24 h, read-out: Cell proliferation IC50 (μM) 786-O) |
| --- | --- | --- | --- | --- | --- | --- | --- | --- |
| 0.557 µM | 0.012 µM | 1.21 µM | C#CC(=O)N1[C@@H](CCCC)Cc2cc(C(F)(F)F)ccc2[C@@H]1c1ccc(NC23CC4CC(CC(C4)C2)C3)cc1 [Compound B-77] | – | – | – | – | – |
| 7 µM | 0.017 µM | 1 µM | C#CC(=O)N1[C@@H](CCCC)Cc2cc(OC(F)(F)F)ccc2[C@@H]1c1ccc(NC23CC4CC(CC(C4)C2)C3)cc1 [Compound B-79] | – | – | – | – | – |
| 3.54 µM | 0.012 µM | 1.28 µM | C#CC(=O)N1[C@@H](CCCC)Cc2cc(C(N)=O)ccc2[C@@H]1c1ccc(NC23CC4CC(CC(C4)C2)C3)cc1 [Compound B-61] | – | – | – | – | – |
| 1.7 µM | 0.036 µM | 1.6 µM | C#CC(=O)N1[C@@H](CCC(C)C)Cc2cc(OC)ccc2[C@@H]1c1ccc(NC23CC4CC(CC(C4)C2)C3)cc1 [Compound B-72] | – | – | – | – | – |
| 3.15 µM | 0.055 µM | 2.62 µM | C#CC(=O)N1[C@@H](CCCC)Cc2cc(OC)ccc2[C@@H]1c1ccc(NC23CC4CC(CC(C4)C2)C3)c(Cl)c1 [Compound B-66] | – | – | – | – | – |
| 2.88 µM | 0.005 µM | 2.81 µM | C#CC(=O)N1[C@@H](CCCC)Cc2cc(OCCOC(=O)CN)ccc2[C@@H]1c1ccc(NC23CC4CC(CC(C4)C2)C3)cc1 [Compound B-57] | – | – | – | – | – |
| 4.9 µM | 0.01 µM | ≥ 10 µM | C#CC(=O)N1[C@@H](CCCC)Cc2cc(OC)ccc2[C@H]1c1ccc(NC23CC4CC(CC(C4)C2)C3)c(C#N)c1 [Compound B-81] | – | – | – | – | – |
| 0.569 µM | 0.004 µM | 0.662 µM | C#CC(=O)N1[C@@H](CCCC)Cc2cc(C#N)ccc2[C@@H]1c1ccc(NC23CC4CC(CC(C4)C2)C3)cc1 [Compound B-78] | – | – | – | – | – |
| 1.13 µM | 0.005 µM | 1.19 µM | C#CC(=O)N1[C@@H](CCCC)Cc2cc(OC)ncc2[C@@H]1c1ccc(NC23CC4CC(CC(C4)C2)C3)cc1 [Compound B-67] | – | – | – | – | – |
| ≥ 10 µM | ≥ 10 µM | ≥ 10 µM | C#CC(=O)N1[C@@H](CCCC)Cc2cc(OCc3cn(CCOCCOCCOCCNC(=O)CCCC[C@@H]4SC[C@@H]5NC(=O)N[C@@H]54)nn3)ccc2[C@@H]1c1ccc(NC23CC4CC(CC(C4)C2)C3)cc1 [Compound B-65] | – | – | – | – | – |
| 1.18 µM | 0.066 µM | 1.71 µM | C#CC(=O)N1[C@@H](CC(C)C)Cc2cc(OC)ccc2[C@@H]1c1ccc(NC23CC4CC(CC(C4)C2)C3)cc1 [Compound B-71] | – | – | – | – | – |
| 2.08 µM | 0.012 µM | 1.59 µM | C#CC(=O)N1[C@@H](CCCC)Cc2cc(OCCOC)ccc2[C@@H]1c1ccc(NC23CC4CC(CC(C4)C2)C3)cc1 [Compound B-70] | – | – | – | – | – |
| 7.87 µM | 2.79 µM | 6.59 µM | C#CC(=O)N1[C@@H](CCCC)Cc2cc(OC)ccc2[C@@H]1c1ccc(NC23CC4CC(CC(C4)C2)C3)cc1F [Compound B-83] | – | – | – | – | – |
| 0.727 µM | 0.009 µM | 0.939 µM | C#CC(=O)N1[C@@H](CCCC)Cc2cc(C(F)F)ccc2[C@@H]1c1ccc(NC23CC4CC(CC(C4)C2)C3)cc1 [Compound B-63] | – | – | – | – | – |
